Key:
Assay in all cases: COMPOUND A In Vitro Assay
Type in all cases: cell-based
A-673 = details: Homo sapiens, A673, Muscle, TP53 Mutant
Procedure, shortened: (§1)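 The human cancer cell lines, spanning many tumour origins, were characterised by exome and RNA sequencing at baseline and then screened against the MDM2 antagonist COMPOUND A. Response is expressed as IC50.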

A2058 = details: Homo sapiens, Skin, TP53 Mutant
Procedure, shortened: as §1

CFPAC-1 = details: Homo sapiens, Pancreas, TP53 Mutant
Procedure, shortened: as §1

COLO 201 = details: Homo sapiens, Intestine, large, colon, TP53 Mutant
Procedure, shortened: as §1

F-36P = details: Homo sapiens, Myeloblast, TP53 Mutant
Procedure, shortened: as §1

HEC-1-A = details: Homo sapiens, Uterus, endometrium, TP53 Mutant
Procedure, shortened: as §1

HMCB = details: Homo sapiens, Skin, TP53 Mutant
Procedure, shortened: as §1

HPAF-II = details: Homo sapiens, Pancreas, TP53 Mutant
Procedure, shortened: as §1

KG-1a = details: Homo sapiens, Bone marrow, TP53 Mutant
Procedure, shortened: as §1

LP-1 = details: Homo sapiens, Lymphocyte, peripheral blood, TP53 Mutant
Procedure, shortened: as §1

LS411N = details: Homo sapiens, LS-411N, Intestine, large, caecum, TP53 Mutant
Procedure, shortened: as §1

LS513 = details: Homo sapiens
Procedure, shortened: as §1

MDA-MB-157 = details: Homo sapiens, Breast, mammary gland, TP53 Mutant
Procedure, shortened: as §1

MEG-01 = details: Homo sapiens, Leukemia, chronic myeloid, TP53 Mutant
Procedure, shortened: as §1

MFM-223 = details: Homo sapiens, Breast, mammary gland, TP53 Mutant
Procedure, shortened: as §1

MG-63 = details: Homo sapiens, Bone, TP53 Mutant
Procedure, shortened: as §1

NCCIT = details: Homo sapiens, Germ cell, gametocyte, TP53 Mutant
Procedure, shortened: as §1

NCI-H1155 = details: Homo sapiens, Lung, TP53 Mutant
Procedure, shortened: as §1

NCI-H1299 = details: Homo sapiens, Lung, TP53 Mutant
Procedure, shortened: as §1

NCI-H1568 = details: Homo sapiens, tissue NA, TP53 Mutant
Procedure, shortened: as §1

NCI-H1666 = details: Homo sapiens, Lung, TP53 Wild type
Procedure, shortened: as §1

NCI-H1792 = details: Homo sapiens, Lung, TP53 Mutant
Procedure, shortened: as §1

NCI-H2227 = details: Homo sapiens, Lung, TP53 Mutant
Procedure, shortened: as §1

NCI-H28 = details: Homo sapiens
Procedure, shortened: as §1

NCI-N87 = details: Homo sapiens, Stomach, TP53 Mutant
Procedure, shortened: as §1

PC-1 = details: Homo sapiens, tissue null, TP53 Wild type
Procedure, shortened: as §1

RPMI-8226 = details: Homo sapiens, Lymphocyte B, peripheral blood, TP53 Mutant
Procedure, shortened: as §1

SK-ES-1 = details: Homo sapiens, SK-ES1, Bone, TP53 Mutant
Procedure, shortened: as §1

SK-LU-1 = details: Homo sapiens, Lung, TP53 Mutant
Procedure, shortened: as §1

SK-N-F1 = details: Homo sapiens, Brain, TP53 Mutant
Procedure, shortened: as §1

SNU-16 = details: Homo sapiens, Stomach, TP53 Mutant
Procedure, shortened: as §1

SR = details: Homo sapiens, Lymphocyte, TP53 Wild type
Procedure, shortened: as §1

TF-1a = details: Homo sapiens, Bone marrow, TP53 Mutant
Procedure, shortened: as §1

TT = details: Homo sapiens, Thyroid gland, TP53 Wild type
Procedure, shortened: as §1

U-698-M = details: Homo sapiens, Tonsil, TP53 Mutant
Procedure, shortened: as §1

VCaP = details: Homo sapiens, Prostate, TP53 Mutant
Procedure, shortened: as §1

YAPC = details: Homo sapiens, Pancreas, TP53 Mutant
Procedure, shortened: as §1

CCOc1cc(C(C)(C)C)ccc1C1=N[C@@](C)(c2ccc(Cl)cc2)[C@@](C)(c2ccc(Cl)cc2)N1C(=O)N1CCN(CCCS(C)(=O)=O)CC1 [COMPOUND A]
IC50 (A-673): 18 µM
IC50 (A2058): 17 µM
IC50 (CFPAC-1): 5.7 µM
IC50 (COLO 201): 10 µM
IC50 (F-36P): 23 µM
IC50 (HEC-1-A): 16 µM
IC50 (HMCB): 15 µM
IC50 (HPAF-II): 10 µM
IC50 (KG-1a): 9 µM
IC50 (LP-1): 4.4 µM
IC50 (LS411N): 16 µM
IC50 (LS513; LS-513, LS513, Intestine, large, caecum, TP53 Wild type): 0.49 µM
IC50 (LS513; LS-513, LS513 cells): 0.5 µM
IC50 (MDA-MB-157): 20 µM
IC50 (MEG-01): 17 µM
IC50 (MFM-223): 17 µM
IC50 (MG-63): 16 µM
IC50 (NCCIT): 11 µM
IC50 (NCI-H1155): 22 µM
IC50 (NCI-H1299): 15 µM
IC50 (NCI-H1568): 9.6 µM
IC50 (NCI-H1666): 13 µM
IC50 (NCI-H1792): 7 µM
IC50 (NCI-H2227): 16 µM
IC50 (NCI-H28; NCI-H28, NCI-H28, Mesothelioma, TP53 Wild type): 0.46 µM
IC50 (NCI-H28; NCI-H28, NCI-H28 cells): 0.5 µM
IC50 (NCI-N87): 12 µM
IC50 (PC-1): 1.3 µM
IC50 (RPMI-8226): 6.6 µM
IC50 (SK-ES-1): 25 µM
IC50 (SK-LU-1): 11 µM
IC50 (SK-N-F1): 17 µM
IC50 (SNU-16): 10 µM
IC50 (SR): 0.043 µM
IC50 (TF-1a): 10 µM
IC50 (TT): 2 µM
IC50 (U-698-M): 9.8 µM
IC50 (VCaP): 13 µM
IC50 (YAPC): 18 µM

Reference: US9657351B2, “MRNA-based gene expression for personalizing patient cancer therapy with an MDM2 antagonist” (Hoffmann-La Roche Inc., priority 2013, dated 2017)
